In US10669314B2, “Polypeptide” (Affibody AB, priority 2014, dated 2020):

Experiments:
[1] = system: IL-6 trans-signaling dependent secretion of MCP-1 in HUVECs; assay: HUVEC trans-signaling assay, MCP-1 production; format: cell-based, human; details: fusions with ABD variant PP013, in the presence of HSA
Experimental: To address the trans-signaling pathway, a second assay was used. Herein, human umbilical vein endothelial cells (HUVECs) were stimulated with hIL-6 and soluble hIL-6Rα and the readout was the production of monocyte chemoattractant protein-1 (MCP-1). HUVECs (Lonza) were grown in EGM-2 bullet kit media (Lonza) and passaged in culture no more than eight times. Cells were grown until 75% confluence before use. Cells were detached using trypsin/EDTA (Lonza), resuspended and washed once in fresh medium. Next, cells were counted and dispensed into 96 well flat bottom plates at a density of 2×10^4 cells per well. Cells were cultured overnight at 37° C. in a humidified 5% CO2 atmosphere. […] The pre-mixed solutions with the test molecules and hIL-6/hIL-6Rα were then transferred to wells containing HUVECs, which were incubated for 24 h at 37° C. in a humidified 5% CO2 atmosphere. Cell free supernatant was collected after the incubation period and human MCP-1 levels were determined by sandwich ELISA using the MCP-1 Duoset ELISA development system (R&D Systems).
Half area 96-well ELISA plates were coated with anti-MCP-1 capture antibody (R&D Systems) at a concentration of 1 μg/ml. Plates were incubated overnight at 4° C., washed twice in tap water and blocked for 1 h in PBSC. […] The absorbance was measured at 450 nm using a microplate reader (Victor^3, Perkin Elmer).

[2] = system: IL-6 triggered serum amyloid-A (SAA) protein release; assay: Serum Amyloid A (SAA) mouse model; format: in vivo; details: 25 mg/kg s.c. 9 h before hIL-6 5 μg/kg i.p.; Balb/c mice
Experimental: The IL-6 targeting Z variant Z06814 (SEQ ID NO:1512) and a control Z variant Z04726 (SEQ ID NO:1535) binding an irrelevant target, were cloned and produced in fusion with the ABD variant PP013 (SEQ ID NO:1554) as described in Example 2. Four groups of Balb/c mice (n=8) were injected subcutaneously (s.c.) with various doses (0, 0.025, 2.5 or 25 mg/kg body weight) of Z06814-ABD 9 h prior to intraperitoneal (i.p.) administration of hIL-6 at 5 μg/kg (R&D Systems). A fifth group of mice (n=8) received 25 mg/kg of Z04726-ABD. Two additional control groups of mice received PBS (n=4) and 25 mg/kg of Z06814-ABD (n=8), respectively, but no subsequent IL-6 injection. After 20 h, the blood was taken by cardiac puncture and serum was collected.
Serum was assessed for the content of murine SAA by ELISA (Tridelta) according to the manufacturer's instructions. In brief, diluted serum samples were added to SAA-precoated plates together with anti-SAA-HRP. The plates were incubated for 1 h and then washed four times. TMB substrate was added for 20 min and the reaction was stopped with stop solution. The absorbance was measured at 450 nm using a microplate reader (Victor^3, Perkin Elmer).

Substance | inhibition of IL-6 mediated trans-signaling in HUVECs [1] | SAA protein levels in serum [2] [µg/mL]
Z03638: control Z variant binding an irrelevant target, tested in fusion with ABD variant PP013 [reference compound] | did not | –
Z04726-ABD: control Z variant Z04726 (SEQ ID NO:1553) binding an irrelevant target, in fusion with ABD variant PP013 [reference compound] | – | 500 to 600
